Data reported in ChEMBL document CHEMBL1772974, “Optimization of potent, selective, and orally bioavailable pyrrolodinopyrimidine-containing inhibitors of heat shock protein 90. Identification of development candidate …” (J Med Chem, 2011).
Values after ≈ are worked out from the molar mass of the structure shown.

Key:
[1] = Toxicity in human A2058 cells xenografted po dosed nu/nu athymic mouse; format: organism-based; details: in vivo
in vitro = details: human, Caco-2
[2] = Permeability from apical to basolateral side of MDCK cells; format: ADME, cell-based, Canis lupus familiaris; details: dog, read-out: permeability
[3] = Permeability from basolateral to apical side of MDCK cells; format: ADME, cell-based, Canis lupus familiaris; details: dog, read-out: permeability
[4] = Solubility of the compound; format: physicochemical
[5] = Volume of distribution at steady state in Han Wistar rat at […], iv; format: ADME, organism-based; design: dose 2.5 mg/kg, route intravenous; details: in vivo, read-out: Vdss
[6] = Oral bioavailability in Han Wistar rat at 10 mg/kg administered as solution in 40% PEG400 in saline; format: ADME, organism-based; details: in vivo
[7] = Oral bioavailability in Han Wistar rat at 10 mg/kg administered as suspension in 0.5% methylcellulose; format: ADME, organism-based; details: in vivo
[8] = Volume of distribution at steady state in Beagle dog at 0.5 mg/kg, iv; format: ADME, organism-based, Canis lupus familiaris; design: dose 0.5 mg/kg, route intravenous; details: in vivo, read-out: Vdss
[9] = Oral bioavailability in Beagle dog at 0.5 mg/kg administered as solution in 40% PEG400 in saline; format: ADME, organism-based, Canis lupus familiaris; details: in vivo
[10] = Oral bioavailability in Beagle dog at 0.5 mg/kg administered as suspension in 0.5% methylcellulose; format: ADME, organism-based, Canis lupus familiaris; details: in vivo

## CO[C@H]1/C=C\C=C(/C)C(=O)NC2=CC(=O)C(NCCN(C)C)=C(C[C@@H](C)C[C@H](OC)[C@H](O)[C@@H](C)/C=C(\C)[C@@H]1OC(N)=O)C2=O [ALVESPIMYCIN]
[1]
  MTD: 10 mg/kg

## Nc1nc2c(c(-c3c(Cl)cc(Cl)cc3OCCn3cccn3)n1)CN(C(=O)NC1CC1)C2
In vitro
  Papp A→B: 5 nm/s

## Cc1cc(Cl)cc(OCCn2cc(F)cn2)c1-c1nc(N)nc2c1CN(C(=O)NCC(C)(F)F)C2
[2]
  Papp A→B: 24 nm/s
[3]
  Papp B→A: 110 nm/s
[4]
  solubility: 200 µM (≈ 102 µg/mL)
[5]
  Vd: 9.6 L/kg
[6]
  bioavailability: 19%
[7]
  bioavailability: 15%
[8]
  Vd: 8 L/kg
[9]
  bioavailability: 63%
[10]
  bioavailability: 58%

## Nc1nc2c(c(-c3c(Cl)cc(Cl)cc3OCCn3cccn3)n1)CN(C(=O)NC1CCC1)C2
In vitro
  Papp A→B: 47 nm/s

## Nc1nc2c(c(-c3c(Cl)cc(Cl)cc3OCCn3cccn3)n1)CN(C(=O)NC1CC(F)(F)C1)C2
In vitro
  Papp A→B: 15 nm/s

## Nc1nc2c(c(-c3c(Cl)cc(Cl)cc3OCCn3cccn3)n1)CN(C(=O)NCC(F)F)C2
In vitro
  Papp A→B: 12 nm/s

## Nc1nc2c(c(-c3c(Cl)cc(Cl)cc3OCCn3cccn3)n1)CN(C(=O)NC13CC(C1)C3)C2
In vitro
  Papp A→B: 50 nm/s

## Nc1nc2c(c(-c3c(Cl)cc(Cl)cc3OCCn3cccn3)n1)CN(C(=O)NCC(F)(F)F)C2
In vitro
  Papp A→B: 9.6 nm/s
